Laboratory results from US8877769B2, “Heteroaryl-substituted urea modulators of fatty acid amide hydrolase” (Janssen Pharmaceutica NV, priority 2008, dated 2014).

How the values were obtained:
Rat FAAH = biological target: T1, Rat FAAH (Rattus norvegicus, UniProt P97612); assay: Assay Method 2: FAAH assay, 3H-anandamide hydrolysis in cell homogenate; type: biochemical; conditions: average of results obtained, > value = solubility limit or highest concentration tested
T1 construct: expressed in transfected cells
T1 sequence (P97612 1-579): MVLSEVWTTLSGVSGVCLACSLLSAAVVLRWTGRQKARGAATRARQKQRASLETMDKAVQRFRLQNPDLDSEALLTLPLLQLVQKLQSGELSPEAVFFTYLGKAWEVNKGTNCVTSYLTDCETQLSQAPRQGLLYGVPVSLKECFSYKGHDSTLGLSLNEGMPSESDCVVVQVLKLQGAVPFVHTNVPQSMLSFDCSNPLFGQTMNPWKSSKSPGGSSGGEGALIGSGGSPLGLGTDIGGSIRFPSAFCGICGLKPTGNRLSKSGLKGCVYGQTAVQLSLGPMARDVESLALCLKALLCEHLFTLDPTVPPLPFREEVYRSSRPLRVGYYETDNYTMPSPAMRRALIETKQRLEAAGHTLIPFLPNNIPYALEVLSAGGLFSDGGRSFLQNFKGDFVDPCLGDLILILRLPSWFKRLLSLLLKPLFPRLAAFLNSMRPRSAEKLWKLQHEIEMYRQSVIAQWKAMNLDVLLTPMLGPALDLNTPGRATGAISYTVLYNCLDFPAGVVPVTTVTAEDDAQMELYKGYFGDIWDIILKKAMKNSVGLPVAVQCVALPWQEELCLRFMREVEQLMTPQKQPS
Protocol: A. Transfection of Cells with Rat FAAH
The assay mixture consisted of 50 μL of the cell homogenate, 10 μL of the test compound, and 40 μL of anandamide [1-^3H-ethanolamine] (^3H-AEA, Perkin-Elmer, 10.3 Ci/mmol), which was added last, for a final tracer concentration of 80 nM. The reaction mixture was incubated at rt for 1 h. During the incubation, 96-well Multiscreen filter plates (catalog number MAFCNOB50; Millipore, Bedford, Mass., USA) were loaded with 25 μL of activated charcoal (Multiscreen column loader, catalog number MACL09625, Millipore) and washed once with 100 μL of MeOH. […] After the 1 h incubation, 60 μL of the reaction mixture were transferred to the charcoal plates, which were then assembled on top of the DYNEX plates using Centrifuge Alignment Frames (catalog number MACF09604, Millipore). The unbound labeled ethanolamine was centrifuged through to the bottom plate (5 min at 2000 rpm), which was preloaded with the scintillant, as described above. The plates were sealed and left at rt for 1 h before counting on a Hewlett Packard TopCount.

FAAH = biological target: T2, FAAH (Homo sapiens, UniProt O00519); assay: Assay Method 1: FAAH assay, 3H-anandamide hydrolysis in cell homogenate
T2 sequence (O00519 1-579): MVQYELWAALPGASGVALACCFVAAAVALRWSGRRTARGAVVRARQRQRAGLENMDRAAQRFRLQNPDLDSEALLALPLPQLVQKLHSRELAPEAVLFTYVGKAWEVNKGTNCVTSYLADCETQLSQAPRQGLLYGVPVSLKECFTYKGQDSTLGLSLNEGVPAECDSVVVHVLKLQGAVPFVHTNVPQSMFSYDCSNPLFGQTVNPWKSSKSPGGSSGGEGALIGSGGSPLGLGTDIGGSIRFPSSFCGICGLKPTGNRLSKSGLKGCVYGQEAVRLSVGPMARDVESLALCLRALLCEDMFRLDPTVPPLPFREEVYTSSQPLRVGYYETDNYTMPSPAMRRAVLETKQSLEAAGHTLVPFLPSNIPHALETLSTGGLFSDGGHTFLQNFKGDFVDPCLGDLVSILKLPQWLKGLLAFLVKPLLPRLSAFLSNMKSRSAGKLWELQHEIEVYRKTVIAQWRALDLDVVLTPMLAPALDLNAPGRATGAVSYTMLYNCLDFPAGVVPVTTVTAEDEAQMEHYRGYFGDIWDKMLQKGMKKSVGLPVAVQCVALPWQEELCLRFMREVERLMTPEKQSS
Protocol: The assay mixture consisted of 50 μL of the cell homogenate, 10 μL of the test compound, and 40 μL of anandamide [1-^3H-ethanolamine] (^3H-AEA, Perkin-Elmer, 10.3 Ci/mmol), which was added last, for a final tracer concentration of 80 nM. The reaction mixture was incubated at rt for 1 h. During the incubation, 96-well Multiscreen filter plates (catalog number MAFCNOB50; Millipore, Bedford, Mass., USA) were loaded with 25 μL of activated charcoal (Multiscreen column loader, catalog number MACL09625, Millipore) and washed once with 100 μL of MeOH. […] After the 1 h incubation, 60 μL of the reaction mixture were transferred to the charcoal plates, which were then assembled on top of the DYNEX plates using Centrifuge Alignment Frames (catalog number MACF09604, Millipore). The unbound labeled ethanolamine was centrifuged through to the bottom plate (5 min at 2000 rpm), which was preloaded with the scintillant, as described above. The plates were sealed and left at rt for 1 h before counting on a Hewlett Packard TopCount. • Assay Method 2

SMILES	IC50 (Rat FAAH) [nM]	IC50 (FAAH) [nM]
O=C(Nc1cnc2cccnn12)N1CCN(Cc2cccc(Oc3ccc(Cl)cc3)c2)CC1 [Example 1, 4-[3-(4-Chloro-phenoxy)-benzyl]-piperazine-1-carboxylic acid imidazo[1,2-b]pyridazin-3-ylamide]	16	
O=C(Nc1cnc2cccnn12)N1CCN(Cc2ccc(Cl)c(Cl)c2)CC1 [Example 2, 4-(3,4-Dichloro-benzyl)-piperazine-1-carboxylic acid imidazo[1,2-b]pyridazin-3-ylamide]	110	62
O=C(Nc1cnc2cccnn12)N1CCN(Cc2ccc3c(c2)OC(F)(F)O3)CC1 [Example 3, 4-(2,2-Difluoro-benzo[1,3]dioxol-5-ylmethyl)-piperazine-1-carboxylic acid imidazo[1,2-b]pyridazin-3-ylamide]	160	230
O=C(Nc1cnc2cccnn12)N1CCN(Cc2ccc(OC(F)(F)F)c(Cl)c2)CC1 [Example 4, 4-(3-Chloro-4-trifluoromethoxy-benzyl)-piperazine-1-carboxylic acid imidazo[1,2-b]pyridazin-3-ylamide]	30	54
O=C(Nc1noc2ncccc12)N1CCN(Cc2ccc3c(c2)OC(F)(F)O3)CC1 [Example 5, 4-(2,2-Difluoro-benzo[1,3]dioxol-5-ylmethyl)-piperazine-1-carboxylic acid isoxazolo[5,4-b]pyridin-3-ylamide]	8000	1600
O=C(Nc1noc2ncccc12)N1CCN(Cc2ccc(Br)c(F)c2)CC1 [Example 6, 4-(4-Bromo-3-fluoro-benzyl)-piperazine-1-carboxylic acid isoxazolo[5,4-b]pyridin-3-ylamide]	> 10000	
O=C(Nc1noc2ncccc12)N1CCN(Cc2ccc3c(c2)OCO3)CC1 [Example 7, 4-Benzo[1,3]dioxol-5-ylmethyl-piperazine-1-carboxylic acid isoxazolo[5,4-b]pyridin-3-ylamide]	> 10000	> 10000
O=C(Nc1noc2ncccc12)N1CCN(Cc2cccc(Oc3ccccc3Cl)c2)CC1 [Example 8, 4-[3-(2-Chloro-phenoxy)-benzyl]-piperazine-1-carboxylic acid isoxazolo[5,4-b]pyridin-3-ylamide]	8000	1500
O=C(Nc1noc2ncccc12)N1CCN(Cc2ccc3cc[nH]c3c2)CC1 [Example 9]	> 10000	> 10000
O=C(Nc1noc2ncccc12)N1CCN(Cc2cnc3ccccc3c2)CC1 [Example 10, 4-Quinolin-3-ylmethyl-piperazine-1-carboxylic acid isoxazolo[5,4-b]pyridin-3-ylamide]	> 10000	> 10000
O=C(Nc1noc2ncccc12)N1CCN(Cc2cccc(Oc3ccc(Cl)cc3)c2)CC1 [Example 20, 4-[3-(4-Chloro-phenoxy)-benzyl]-piperazine-1-carboxylic acid isoxazolo[5,4-b]pyridin-3-ylamide]	7	
O=C(Nc1noc2ncccc12)N1CCN(Cc2ccc3ccccc3c2)CC1 [Example 29, 4-Naphthalen-2-ylmethyl-piperazine-1-carboxylic acid isoxazolo[5,4-b]pyridin-3-ylamide]		370
O=C(Nc1noc2ccncc12)N1CCN(Cc2cccc(Oc3ccc(Cl)cc3)c2)CC1 [Example 40, 4-[3-(4-Chloro-phenoxy)-benzyl]-piperazine-1-carboxylic acid isoxazolo[4,5-c]pyridin-3-ylamide]	40	
O=C(Nc1noc2cccnc12)N1CCN(Cc2cccc(Oc3ccc(Cl)cc3)c2)CC1 [Example 41, 4-[3-(4-Chloro-phenoxy)-benzyl]-piperazine-1-carboxylic acid isoxazolo[4,5-b]pyridin-3-ylamide]	17	
O=C(Nc1cccc2cn[nH]c12)N1CCN(Cc2cccc(Oc3ccc(Cl)cc3)c2)CC1 [Example 48, 4-[3-(4-Chloro-phenoxy)-benzyl]-piperazine-1-carboxylic acid (1H-indazol-7-yl)-amide]	3000	
O=C(Nc1cccc2cn[nH]c12)N1CCN(Cc2ccc3c(c2)OC(F)(F)O3)CC1 [Example 49, 4-(2,2-Difluoro-benzo[1,3]dioxol-5-ylmethyl)-piperazine-1-carboxylic acid (1H-indazol-7-yl)-amide]		> 10000
O=C(Nc1ccc2nccn2c1)N1CCN(Cc2cccc(Oc3ccc(Cl)cc3)c2)CC1 [Example 50, 4-[3-(4-Chloro-phenoxy)-benzyl]-piperazine-1-carboxylic acid imidazo[1,2-a]pyridin-6-ylamide]	1200	
O=C(Nc1cnc2ccccn12)N1CCN(Cc2cccc(Oc3ccc(Cl)cc3)c2)CC1 [Example 57, 4-[3-(4-Chloro-phenoxy)-benzyl]-piperazine-1-carboxylic acid imidazo[1,2-a]pyridin-3-ylamide]	98	
O=C(Nc1cnc2ccccn12)N1CCN(Cc2ccc3c(c2)OC(F)(F)O3)CC1 [Example 58, 4-(2,2-Difluoro-benzo[1,3]dioxol-5-ylmethyl)-piperazine-1-carboxylic acid imidazo[1,2-a]pyridin-3-ylamide]	2000	
O=C(Nc1cnc2[nH]ccc2c1)N1CCN(Cc2cccc(Oc3ccc(Cl)cc3)c2)CC1 [Example 60, 4-[3-(4-Chloro-phenoxy)-benzyl]-piperazine-1-carboxylic acid (1H-pyrrolo[2,3-b]pyridin-5-yl)-amide]	16	
Cc1nc2cc(NC(=O)N3CCN(Cc4cccc(Oc5ccc(Cl)cc5)c4)CC3)ccc2o1 [Example 63, 4-[3-(4-Chloro-phenoxy)-benzyl]-piperazine-1-carboxylic acid (2-methyl-benzooxazol-5-yl)-amide]	120	
O=C(Nc1nc2ccccc2o1)N1CCN(Cc2cccc(Oc3ccc(Cl)cc3)c2)CC1 [Example 66, 4-[3-(4-Chloro-phenoxy)-benzyl]-piperazine-1-carboxylic acid benzooxazol-2-ylamide]		880
O=C(Nc1cccc2nccn12)N1CCN(Cc2cccc(Oc3ccc(Cl)cc3)c2)CC1 [Example 69, 4-[3-(4-Chloro-phenoxy)-benzyl]-piperazine-1-carboxylic acid imidazo[1,2-a]pyridin-5-ylamide]	6	
O=C(Nc1ccn2ccnc2c1)N1CCN(Cc2cccc(Oc3ccc(Cl)cc3)c2)CC1 [Example 72, 4-[3-(4-Chloro-phenoxy)-benzyl]-piperazine-1-carboxylic acid imidazo[1,2-a]pyridin-7-ylamide]	660	
O=C(Nc1cc2nccn2cn1)N1CCN(Cc2cccc(Oc3ccc(Cl)cc3)c2)CC1 [Example 74, 4-[3-(4-Chloro-phenoxy)-benzyl]-piperazine-1-carboxylic acid imidazo[1,2-c]pyrimidin-7-ylamide]	500	
O=C(Nc1ccn2ccnc2n1)N1CCN(Cc2cccc(Oc3ccc(Cl)cc3)c2)CC1 [Example 75, 4-[3-(4-Chloro-phenoxy)-benzyl]-piperazine-1-carboxylic acid imidazo[1,2-a]pyrimidin-7-ylamide]	830	
O=C(Nc1ccnc2nccn12)N1CCN(Cc2cccc(Oc3ccc(Cl)cc3)c2)CC1 [Example 76, 4-[3-(4-Chloro-phenoxy)-benzyl]-piperazine-1-carboxylic acid imidazo[1,2-a]pyrimidin-5-ylamide]	31	
O=C(Nc1nocc1Cl)N1CCN(Cc2cccc(Oc3ccc(Cl)cc3)c2)CC1 [Example 85, 4-[3-(4-Chloro-phenoxy)-benzyl]-piperazine-1-carboxylic acid (4-chloro-isoxazol-3-yl)-amide]	22	
